Measurements as given in patent publication US5668134A, “Method for preventing or reducing photosensitivity and/or phototoxicity reactions to medications” (priority 1994, dated 1997).
Values joined by “and” are separate entries in the source; they are usually repeats but may differ in a detail not shown here. Equal entries are not always repeated. Structures can show the parent of a compound that is named as a salt.

What was measured:
[1] = system: skin of healthy volunteers; experiment: Example 5: Minimum Erythema Dose with UVA radiation, morning vs evening dosing; assay type: in vivo, human; conditions: mean, UVA
Protocol: This study describes a randomized, single site, double-blind, two treatment, two period, two sequence, cross-over clinical pharmacology study which was performed according to FDA regulations in 27 healthy normal volunteers with fair skin that could easily burn when exposed to sunlight, to assess the photosensitivity and/or phototoxicity potential of oral 400 mg lomefloxacin hydrochloride (MAXAQUIN®) administered once daily for 4 consecutive days either in the morning (morning dose group), as described hereinbelow, or in the early evening (evening dose group), as described hereinbelow. Irradiation and evaluation of irradiated sites began at 2 hours after the final morning dose of lomefloxacin HCl for the morning dosing group, and began 16 hours after the final evening dose of lomefloxacin HCl for the evening dosing group.
"Baseline MED" was defined as the lowest dose of UVA radiation alone, or UVA and UVB radiation, that produced a minimal perceptible erythema filling a 1 cm^2 patch of skin 24 hours post radiation.
"Delayed MED" was defined as the lowest dose of UVA radiation alone, or UVA and UVB radiation, that produced a minimal perceptible erythema filling a 1 cm^2 patch of skin, when testing the area 24, 48 and 72 hours post radiation.
"Immediate MED" was defined as the lowest dose producing minimal perceptible erythema filling a 1 cm^2 patch of skin when testing the area 0, 3, and 6 hours post radiation.
After all baseline procedures, including determination of baseline MEDUVA and MEDUVA+UVB values 24 hours post-radiation, were completed, all subjects started Study Day 1 of Treatment Period 1 with an evening dose of study medication, and completed this phase of the treatment regime with a morning dose of study medication on Study Day 5. Two hours after the final morning dose, and 16 hours after the last evening dose, a randomly selected site composed of six patches of skin, each with an area of one square centimeter, on the back or buttock of the subject was irradiated with incremental amounts of energy. Immediately following irradiation (0 hour), and at 3, 6, 24, 48 and 72 hours following irradiation, each skin patch area was evaluated to determine the MEDs, and assess the severity of skin reaction using a five-grade system, as described hereinbelow. The lowest of the MEDs determined at 0, 3 and 6 hours post-radiation were referred to as immediate MEDs, and the lowest of the MEDs determined at 24, 48 and 72 hours post-radiation were referred to as delayed MEDs.
The source of radiation employed was an Oriel (Santa Monica, Calif.) Xenon Arc 1000 watt solar simulator, with the following filters: WG320 filter (1 mm thick, emitting full spectrum UVA and UVB radiation), WG335 filter (3 mm thick, emitting almost exclusively UVA radiation) or UG11 filter (to filter infrared radiation).
For predrug exposure MED determination, 2 sets each with six 1 cm^2 patches on the back or buttocks were irradiated with increasing doses of UVA and UVB radiation, and UVA radiation alone, up to 7 days prior to beginning of drug treatment. With respect to UVA light source, irradiation began at 5 J/cm^2, and was increased by increments of 5 J/cm^2 using a different skin patch for each exposure. The maximum radiation dose was 30 J/cm^2. Subjects with MED greater than 30 J/cm^2 were excluded from the study. […] A different skin patch was used for each exposure.
Two hours after the administration of the last dose of Treatment Period 1 (a.m. dose), the two randomly selected sites on each subject's back or buttocks were exposed one to UVA and UVB radiation, and one to UVA radiation alone. In order to protect the subjects from excessive radiation, as well as assess the true Minimum Erythema Dose (MED), the posttreatment irradiation doses for each subject was adjusted in accordance with their pretreatment MEDs. The following table was used to determine each subject's minimum and maximum posttreatment radiation dose: […]

[2] = Example 5: lomefloxacin plasma concentrations; conditions: for concentration at 14 h: Hour 14, mean; for plasma concentration, Hour 86: 72 hours following last active dose
[3] = system: skin of healthy volunteers; conditions: in vivo
Protocol: The number of skin patches with edema, or local swelling of the skin surface, were also counted. MEDs were measured separately for UVA and UVB radiation, and for UVA radiation alone. The baseline MED was defined in the manner described hereinabove. The 24 hour evaluation was allowed to be performed in the morning of Study Day 1. Severity of reactions causing edema and/or blisters were graded under the following grading system:
Severity was assessed by comparing the numbers of subjects with responses graded as 2 (edema) or 3 (blisters).

[4] = human, plasma, mean, a.m. dosing
[5] = human, plasma, mean, p.m. dosing

CCn1cc(C(=O)O)c(=O)c2cc(F)c(N3CCNC(C)C3)c(F)c21 (racemic) [lomefloxacin HCl, monohydrochloride salt of (±)-1-ethyl-6,8-difluoro-1,4-dihydro-7-(3-methyl-1-piperazinyl)-4-oxo-3-quinolinecarboxylic acid]
CHANGE BASELINE, delayed MED, mean ([1]; a.m. dosing, p=0.002): 6.5 J/cm^2 and 6.538 J/cm^2
CHANGE BASELINE, immediate MED, mean ([1]; a.m. dosing, p=0.002): 6.923 J/cm^2 and 6.9 J/cm^2
DELAYED MED, mean ([1]; p.m. dosing): 27.917 J/cm^2
IMMEDIATE MED, mean ([1]; p.m. dosing): 28.750 J/cm^2
MED, 0 H, mean ([1]; p.m. dosing, 0 H): 28.333 J/cm^2
MED, 3 H, mean ([1]; p.m. dosing, 3 H): 30.000 J/cm^2
MED, 6 H, mean ([1]; p.m. dosing, 6 H): 28.750 J/cm^2
MED, 24 H, mean ([1]; p.m. dosing, 24 H): 28.333 J/cm^2
MED, 48 H, mean ([1]; p.m. dosing, 48 H): 28.182 J/cm^2
MED, 72 H, mean ([1]; p.m. dosing, 72 H): 28.500 J/cm^2
CHANGE BASELINE, delayed MED, mean ([1]; p.m. dosing, p=1.000): 0.000 J/cm^2
AUC [2, 4]: 47000 ng·h/mL
AUC [2, 5]: 40000 ng·h/mL
Cmax [2, 4]: 3000 ng/mL
Cmax [2, 5]: 2900 ng/mL
Tmax ([2]; human, plasma, Tmax, mean, a.m. dosing, sample hour scale): 14.9 h
Tmax ([2]; human, plasma, Tmax, mean, p.m. dosing): 2.9 h
concentration at 2 h ([2]; human, plasma, plasma concentration, Hour 2, mean, mean, a.m. dosing, 12 hours prior to last active dose): 1100 ng/mL
concentration at 2 h ([2]; human, plasma, plasma concentration, Hour 2, mean, mean, p.m. dosing, 2 hours following last active dose): 2900 ng/mL
concentration at 14 h ([2]; human, plasma, plasma concentration, mean, a.m. dosing, immediately prior to last active dose): 300 ng/mL
concentration at 14 h ([2]; human, plasma, plasma concentration, mean, p.m. dosing, 14 hours following last active dose): 1000 ng/mL
concentration at 2 h ([2]; human, plasma, plasma concentration, Hour 16, individual subjects, a.m. dosing, 2 hours following last active dose): 2920 ng/mL
concentration at 2 h ([2]; human, plasma, plasma concentration, Hour 16, mean, mean, a.m. dosing, 2 hours following last active dose): 3100 ng/mL
concentration at 16 h ([2]; human, plasma, plasma concentration, Hour 16, mean, mean, p.m. dosing, 16 hours following last active dose): 800 ng/mL
concentration at 5 h ([2]; human, plasma, plasma concentration, Hour 19, individual subjects, a.m. dosing, 5 hours following last active dose): 1850 ng/mL
concentration at 5 h ([2]; human, plasma, plasma concentration, Hour 19, mean, mean, a.m. dosing, 5 hours following last active dose): 2200 ng/mL
concentration at 19 h ([2]; human, plasma, plasma concentration, Hour 19, mean, mean, p.m. dosing, 19 hours following last active dose): 600 ng/mL
concentration at 24 h ([2]; human, plasma, plasma concentration, Hour 38, mean, mean, a.m. dosing, 24 hours following last active dose): 300 ng/mL
concentration at 38 h ([2]; human, plasma, plasma concentration, Hour 38, mean, mean, p.m. dosing, 38 hours following last active dose): 100 ng/mL
plasma concentration, Hour 16 ([2]; individual subjects, a.m. dosing, 2 hours following last active dose, 120 min): 2420 ng/mL and 3160 ng/mL and 3730 ng/mL and 3000 ng/mL and 3660 ng/mL and 2650 ng/mL and 2840 ng/mL and 2950 ng/mL and 3050 ng/mL and 2940 ng/mL and 4040 ng/mL and 2580 ng/mL
plasma concentration, Hour 19 ([2]; individual subjects, a.m. dosing, 5 hours following last active dose, 300 min): 1710 ng/mL and 1810 ng/mL and 2370 ng/mL and 2360 ng/mL and 2280 ng/mL and 1780 ng/mL and 2060 ng/mL and 1750 ng/mL and 1720 ng/mL and 2880 ng/mL and 3060 ng/mL and 2390 ng/mL
plasma concentration, Hour 2 ([2]; individual subjects, a.m. dosing, 12 hours prior to last active dose, 120 min): 786 ng/mL and 1030 ng/mL and 889 ng/mL and 1460 ng/mL and 1360 ng/mL and 711 ng/mL and 1090 ng/mL and 840 ng/mL and 915 ng/mL and 1200 ng/mL and 1280 ng/mL and 1110 ng/mL and 1500 ng/mL
plasma concentration, Hour 0 ([2]; individual subjects, a.m. dosing, 14 hours prior to last active dose): 1160 ng/mL and 1060 ng/mL and 1540 ng/mL and 1520 ng/mL and 1350 ng/mL and 901 ng/mL and 1370 ng/mL and 1080 ng/mL and 1180 ng/mL and 1720 ng/mL and 1360 ng/mL and 1800 ng/mL
plasma concentration, Hour 38 ([2]; individual subjects, a.m. dosing, 24 hours following last active dose, 1440 min): 230 ng/mL and 318 ng/mL and 281 ng/mL and 346 ng/mL and 467 ng/mL and 319 ng/mL and 251 ng/mL and 361 ng/mL and 201 ng/mL and 157 ng/mL and 258 ng/mL and 263 ng/mL and 367 ng/mL
plasma concentration, Hour 62 ([2]; individual subjects, a.m. dosing, 48 hours following last active dose, 2880 min): 39 ng/mL and 64 ng/mL and 27 ng/mL and 54 ng/mL and 73 ng/mL and 35 ng/mL and 53 ng/mL and 21 ng/mL and 16 ng/mL and 36 ng/mL
plasma concentration, Hour 86 ([2]; individual subjects, a.m. dosing): 0 ng/mL
plasma concentration, Hour 86 ([2]; individual subjects, a.m. dosing, 4320 min): 11 ng/mL and 16 ng/mL and 6 ng/mL and 13 ng/mL and 19 ng/mL and 7 ng/mL and 9 ng/mL and 17 ng/mL
plasma concentration, Hour 14 ([2]; individual subjects, a.m. dosing, immediately prior to last active dose, 840 min): 271 ng/mL and 368 ng/mL and 243 ng/mL and 385 ng/mL and 479 ng/mL and 297 ng/mL and 210 ng/mL and 350 ng/mL and 204 ng/mL and 279 ng/mL and 317 ng/mL and 283 ng/mL and 419 ng/mL
Tmax ([2]; individual subjects, a.m. dosing, sample hour scale): 16 h and 0 h
Tmax ([2]; individual subjects, p.m. dosing): 14 h
plasma concentration, Hour 0, mean ([2]; mean, a.m. dosing, 14 hours prior to last active dose): 1300 ng/mL
severity of UVA+UVB radiation-induced photoreactions versus baseline [3]: no change
subjects with edema or blisters on the sites of radiation, UVA [3]: sixty-nine
